For assay [1], the system named is optic nerve. Description: ATP release measurement (luciferin/luciferase) in isolated optic nerves after OGD. On the set-up: species or system rats. The note with it: MFQ 1 µM, CBX 100 µM. The procedure: (§1) ATP levels were measured using a Luciferin/Luciferase assay kit (Invitrogen) after 1h normoxia or OGD in oligodendrocyte cultures and in isolated optic nerves according to the manufacturer's instructions. The luminescence was measured with a luminometer Synergy-HT (BioTek) with an integration time of 3 sec. Because ATP was measured in the culture medium and in the solution bathing optic nerves, the concentration of ATP at the extracellular surface, near the vicinity of the receptor was underestimated (Joseph et al., 2003. J Biol Chem 278:23331-23342). The limit of ATP detection was 1 nM and luminescence was linear with increasing ATP concentrations to 1000 nM. The total amount of ATP was calculated according to standard curves and ATP release was expressed in percentage vs control.
(§2) After 1h OGD at 37°C, the medium was replaced with fresh solution containing glucose and equilibrated with 95% O2, 5% CO2 and the nerves were incubated for another 2h at 37°C to simulate reperfusion.

Assay [2] concerns optic nerve oligodendrocytes. Description: Oxygen and glucose deprivation (OGD) cell death in oligodendrocyte cultures (calcein-AM). Type of assay: cell-based, Sprague-Dawley rats. The note with it: 1h OGD, calcein 24h later; PPADS 100 µM, BBG 50 nM, CNQX 30 µM, APV 100 µM, apyrase 20 U/ml, ARL67156 100 µM, CBX 20 µM, FFA 100 µM, MFQ 1 nM. The protocol: (§3) Primary cultures of oligodendrocytes derived from optic nerves of 12 day-old Sprague-Dawley rats were obtained as previously described (Matute et al., 1997 Proc Natl Acad Sci U S A 94:8830-8835.).Cells were maintained at 37°C and 5% CO2 in a chemically defined medium (Matute et al., 1997 Proc Natl Acad Sci U S A 94:8830-8835.). After 2-4 days in vitro, cultures were composed of at least 98% 04/Ga1C^+ cells. No microglial cells were detected in these cultures. […] Cell death was determined 24h later using calcein-AM (Invitrogen) as previously described (Matute et al., 1997 Proc Natl Acad Sci U S A 94:8830-8835.). Antagonists were present during in vitro ischaemia and during the next 24h incubation period. […] To assay the levels of reactive oxygen species (ROS), cells were loaded with 40 µM 2',7'- dichlorodihyfluoresceindiacetate (DCFDA; Invitrogen) and 1 µM calcein red-orange (Molecular Probes) immediately after OGD. Calcein was used to quantify the number of cells within the reading field. Fluorescence was measured as above and values were plotted as the percentage of DCFDA/calcein red-orange fluorescence versus control. The changes in mitochondrial membrane potential were monitored with 5,5',6,6'-tetrachloro-1,1',3,3'-tetraethylbenzimidazolcarbocyanine iodide (JC-1; Molecular Probes). Immediately after OGD, cells were loaded with JC-1 (3 µM) at 37°C for 30 min. The changes in the membrane potential were calculated as the red (emission at 590)/green (emission at 520) ratio in each condition and results were normalized to control.

The target of assay [3] is T1, P2X7 receptors in oligodendrocytes (Rattus norvegicus, UniProt Q64663).
T1 construct: ATP (1 mM)-evoked inward currents in whole-cell clamped oligodendrocytes at -70 mV; endogenous in cells; host or cells: primary rat optic nerve oligodendrocytes
T1 sequence (Q64663 1-595): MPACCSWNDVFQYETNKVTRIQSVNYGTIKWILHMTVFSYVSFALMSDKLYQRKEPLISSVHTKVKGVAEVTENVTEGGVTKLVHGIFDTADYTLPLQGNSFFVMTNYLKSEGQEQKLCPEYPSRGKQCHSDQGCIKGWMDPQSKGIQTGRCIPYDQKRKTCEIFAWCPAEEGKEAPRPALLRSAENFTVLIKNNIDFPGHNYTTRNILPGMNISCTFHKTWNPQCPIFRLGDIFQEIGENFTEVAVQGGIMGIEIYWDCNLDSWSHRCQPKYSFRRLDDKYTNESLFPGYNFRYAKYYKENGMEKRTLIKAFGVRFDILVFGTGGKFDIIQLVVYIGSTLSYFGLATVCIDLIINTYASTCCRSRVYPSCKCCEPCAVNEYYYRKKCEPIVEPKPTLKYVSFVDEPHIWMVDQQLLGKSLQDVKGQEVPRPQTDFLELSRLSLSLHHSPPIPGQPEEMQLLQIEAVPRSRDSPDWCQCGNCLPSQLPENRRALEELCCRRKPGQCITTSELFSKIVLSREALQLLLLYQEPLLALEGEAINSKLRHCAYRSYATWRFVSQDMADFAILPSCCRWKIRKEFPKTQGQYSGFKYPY
The assay can be described thus: ATP-evoked inward currents in whole-cell clamped oligodendrocytes. The format is cell-based, Sprague-Dawley rats. The settings on record: -70 mV; CBX 20 µM, MFQ 1 nM. The protocol:
Primary cultures of oligodendrocytes derived from optic nerves of 12 day-old Sprague-Dawley rats were obtained as previously described (Matute et al., 1997 Proc Natl Acad Sci U S A 94:8830-8835.).Cells were maintained at 37°C and 5% CO2 in a chemically defined medium (Matute et al., 1997 Proc Natl Acad Sci U S A 94:8830-8835.). After 2-4 days in vitro, cultures were composed of at least 98% 04/Ga1C^+ cells. No microglial cells were detected in these cultures. […] Cell death was determined 24h later using calcein-AM (Invitrogen) as previously described (Matute et al., 1997 Proc Natl Acad Sci U S A 94:8830-8835.). […] Calcein was used to quantify the number of cells within the reading field. Fluorescence was measured as above and values were plotted as the percentage of DCFDA/calcein red-orange fluorescence versus control. The changes in mitochondrial membrane potential were monitored with 5,5',6,6'-tetrachloro-1,1',3,3'-tetraethylbenzimidazolcarbocyanine iodide (JC-1; Molecular Probes). […] The changes in the membrane potential were calculated as the red (emission at 590)/green (emission at 520) ratio in each condition and results were normalized to control.
Whole cell recordings were performed at room temperature and at a holding membrane potential of -70 mV. […] Data were analyzed with Excel and Prism software.

Assay [4] has as its system optic nerves. Description: Optic nerve ischaemia (OGD), tissue damage by LDH release. On the set-up: species or system rats. The procedure:
as §2
In general terms: Release of lactate dehydrogenase indicates damage to the cell membrane.

In assay [5] the test system is cultured optic nerve oligodendrocytes. Description: ATP release measurement (luciferin/luciferase) in oligodendrocyte cultures after OGD. The settings on record: 1h OGD in the presence of ARL67156; CBX 20 µM, FFA 100 µM, MFQ 1 nM (figure legend). Type of assay: cell-based, Sprague-Dawley rats. The procedure: as §3, §1
The subject of assay [6] is optic nerve oligodendrocytes. The assay can be described thus: Ca2+ imaging (fura-2) of oligodendrocytes during chemical ischaemia. Type of assay: cell-based, Sprague-Dawley rats. The protocol:
After 2-4 days in vitro, cultures were composed of at least 98% 04/Ga1C^+ cells. No microglial cells were detected in these cultures. […] Cell death was determined 24h later using calcein-AM (Invitrogen) as previously described (Matute et al., 1997 Proc Natl Acad Sci U S A 94:8830-8835.). Antagonists were present during in vitro ischaemia and during the next 24h incubation period. […] Calcein was used to quantify the number of cells within the reading field. Fluorescence was measured as above and values were plotted as the percentage of DCFDA/calcein red-orange fluorescence versus control. […] Molecular Probes). […] The changes in the membrane potential were calculated as the red (emission at 590)/green (emission at 520) ratio in each condition and results were normalized to control. Whole cell recordings were performed at room temperature and at a holding membrane potential of -70 mV. Extracellular bath solution with a pH of 7.3 contained (in mM): […] Patch clamp pipettes (3-5 MΩ) were filled with internal solution at a pH of 7.3 containing (in mM): CsCI 140, CaC12 2, MgC12 2, HEPES 10, EGTA 11, Na-ATP 2. […] Data were analyzed with Excel and Prism software.

In assay [7] the test system is optic nerve.
Assay [8] deals with T2, P2X7 (Homo sapiens, UniProt Q99572).
T2 sequence (Q99572 1-595): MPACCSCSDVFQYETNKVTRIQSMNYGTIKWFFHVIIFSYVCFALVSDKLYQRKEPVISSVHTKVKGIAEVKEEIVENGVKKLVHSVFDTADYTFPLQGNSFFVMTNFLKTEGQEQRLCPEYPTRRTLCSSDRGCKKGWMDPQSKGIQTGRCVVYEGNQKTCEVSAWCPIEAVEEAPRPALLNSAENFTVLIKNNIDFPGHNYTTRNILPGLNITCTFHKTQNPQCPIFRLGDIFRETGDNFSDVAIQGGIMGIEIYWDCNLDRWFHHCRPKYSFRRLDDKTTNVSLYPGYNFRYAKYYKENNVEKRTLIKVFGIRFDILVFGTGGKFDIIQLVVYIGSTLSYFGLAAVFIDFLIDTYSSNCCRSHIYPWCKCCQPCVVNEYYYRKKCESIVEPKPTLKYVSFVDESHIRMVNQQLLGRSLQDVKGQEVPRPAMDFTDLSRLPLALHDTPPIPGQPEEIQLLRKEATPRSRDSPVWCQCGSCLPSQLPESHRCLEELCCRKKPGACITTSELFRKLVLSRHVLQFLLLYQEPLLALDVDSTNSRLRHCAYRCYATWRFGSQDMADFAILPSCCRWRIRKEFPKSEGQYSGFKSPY
The note with it: cited from earlier work.

Assay [9] relates to optic nerve oligodendrocytes. The assay can be described thus: Whole-cell recording of ischaemic inward current in cultured oligodendrocytes (chemical ischaemia). The format is cell-based, Sprague-Dawley rats. The procedure: After 2-4 days in vitro, cultures were composed of at least 98% 04/Ga1C^+ cells. No microglial cells were detected in these cultures. […] Cell death was determined 24h later using calcein-AM (Invitrogen) as previously described (Matute et al., 1997 Proc Natl Acad Sci U S A 94:8830-8835.). Antagonists were present during in vitro ischaemia and during the next 24h incubation period. […] Calcein was used to quantify the number of cells within the reading field. Fluorescence was measured as above and values were plotted as the percentage of DCFDA/calcein red-orange fluorescence versus control. […] Molecular Probes). […] The changes in the membrane potential were calculated as the red (emission at 590)/green (emission at 520) ratio in each condition and results were normalized to control. Whole cell recordings were performed at room temperature and at a holding membrane potential of -70 mV. Extracellular bath solution with a pH of 7.3 contained (in mM): […] Patch clamp pipettes (3-5 MΩ) were filled with internal solution at a pH of 7.3 containing (in mM): CsCI 140, CaC12 2, MgC12 2, HEPES 10, EGTA 11, Na-ATP 2. For electrophysiology monitoring, ischaemia was induced chemically by using the glycolytic blocker iodoacetate (1 mM) and the oxidative phosphorylation inhibitor antimycin (2.5 μM), and omitting glucose because recordings were performed in an open chamber where O2 can diffuse to the cells (Káradóttir et al., 2005). Recordings of ATP currents were performed in divalent cation-free extracellular solutions, obtained by omitting Ca^2+ and Mg^2+, to potentiate P2X-mediated responses (Matute et al., 1997 Proc Natl Acad Sci U S A 94:8830-8835.). […] Molecular Probes, Inc., Eugene, OR) in culture medium for 30 min at 37 °C. Experiments were carried out in a coverslip chamber continuously perfused with a buffer containing 20 mM HEPES, 2 mM CaC12, 10 mM glucose in HBSS at 1 ml/min. The perfusion chamber was mounted on the stage of a Zeiss inverted epifluorescence microscope (Axiovert 35), equipped with a 150 W xenon lamp Polychrome IV (TILL Photonics GMBH) and a Plan Neofluar 40x oil immersion objective (Zeiss, Germany). Cells were visualized with a high resolution digital B/W CCD camera (ORCA; Hamamatsu Photonics Iberica, Barcelona, Spain) and image acquisition and data analysis were carried out using the AquaCosmos software program (Hamamatsu Photonics Iberica). Images were acquired every 30 ms at 37°C and ischaemia was induced as above. […] At the end of the assay, in situ calibration was carried out with the successive addition of […] and 2M Tris/50 mM EGTA, pH 8.5. Data were analyzed with Excel and Prism software.

Setting [10] is: P28 rat optic nerves, 1h OGD + 2h reperfusion, PPADS 1 mM, BBG 50 nM, oATP 1 mM, apyrase 20 U/ml, MFQ 1 µM, CBX 100 µM, FFA 1 mM.

“Also recorded” adds a separate entry of the source. Where a name gives a salt, the structure may show the parent alone. Read-outs that look alike come from different tables or passages of the source.

As for `CC1(C)[C@@H](OC(=O)CCC(=O)O)CC[C@]2(C)[C@H]3C(=O)C=C4[C@@H]5C[C@@](C)(C(=O)O)CC[C@]5(C)CC[C@@]4(C)[C@]3(C)CC[C@@H]12` [CBX], in [1], the “ATP levels during OGD” value is given as “reduced”. Further, the “OGD-induced oligodendrocyte cell death” value in assay [2] was “inhibited”. Further, the “ATP (1 mM)-evoked inward currents” value in [3] is listed as “not reduced”. The “ischaemia-induced damage to optic nerves (LDH release)” value (“ischaemia-induced damage” below) in [4] (setting [10]) was “reduced; also recorded: attenuated”. Moreover, in [5], the “ATP levels after OGD” value is reported as “significantly reduced”.

As to `OC(c1cc(C(F)(F)F)nc2c(C(F)(F)F)cccc12)C1CCCCN1` [MFQ, [8-bis(trifluoromethyl)quinolin-4-yl]-[(2R)-piperidin-2-yl]methanol], in [1], the “ATP levels during OGD” value is given as “reduced”. Also, in [2], the “OGD-induced oligodendrocyte cell death” value was “inhibited”. The “ATP (1 mM)-evoked inward currents” value in assay [3] was “not reduced”. The “ischaemia-induced damage” value in assay [4] (setting [10]) was “reduced; also recorded: attenuated”. For the same molecule, in assay [5], the “ATP levels after OGD” value is “significantly reduced”.

The term IC50 denotes the concentration needed to halve the response being measured. `Nc1ncnc2c1ncn2[C@@H](C=O)O[C@@H](C=O)COP(=O)(O)OP(=O)(O)OP(=O)(O)O` [o-ATP, the sodium salt of adenosine 5-triphosphate, oxidized with periodate]: the “increase in [Ca2+]i caused by ischaemia” value in [6] is on record as “significantly blocked; also recorded: significantly reduced”. The “recovery of axon function (CAP area) after the ischaemic insult” value in [7] is on record as “significantly improved”. Besides, the 50% inhibitory concentration (IC50) in assay [8] was 5 µM. In assay [9], the ischaemic inward currents result is on record as “significantly reduced”. In assay [4], the “OGD-induced damage at all developmental stages” value is on record as “decreased; also recorded: protected” and the “ischaemia-induced damage” value is on record as “prevented; also recorded: reduced”.
